Laboratory results published in ChEMBL document CHEMBL5465560, “Selectivity Literature for EUbOPEN Chemogenomic Library” (2024).
Values belong to the compound of their own block, whether it stands above or below them.

Key:
[1] = target: T1, Phosphatidylinositol 3-kinase C2 domain-containing subunit gamma (Homo sapiens) (UniProt O75747); assay: Selectivity interaction (Kinase panel (Eurofins)) EUB0001564a PIK3C2G; conditions: at 1 µM
T1 sequence (whole entry): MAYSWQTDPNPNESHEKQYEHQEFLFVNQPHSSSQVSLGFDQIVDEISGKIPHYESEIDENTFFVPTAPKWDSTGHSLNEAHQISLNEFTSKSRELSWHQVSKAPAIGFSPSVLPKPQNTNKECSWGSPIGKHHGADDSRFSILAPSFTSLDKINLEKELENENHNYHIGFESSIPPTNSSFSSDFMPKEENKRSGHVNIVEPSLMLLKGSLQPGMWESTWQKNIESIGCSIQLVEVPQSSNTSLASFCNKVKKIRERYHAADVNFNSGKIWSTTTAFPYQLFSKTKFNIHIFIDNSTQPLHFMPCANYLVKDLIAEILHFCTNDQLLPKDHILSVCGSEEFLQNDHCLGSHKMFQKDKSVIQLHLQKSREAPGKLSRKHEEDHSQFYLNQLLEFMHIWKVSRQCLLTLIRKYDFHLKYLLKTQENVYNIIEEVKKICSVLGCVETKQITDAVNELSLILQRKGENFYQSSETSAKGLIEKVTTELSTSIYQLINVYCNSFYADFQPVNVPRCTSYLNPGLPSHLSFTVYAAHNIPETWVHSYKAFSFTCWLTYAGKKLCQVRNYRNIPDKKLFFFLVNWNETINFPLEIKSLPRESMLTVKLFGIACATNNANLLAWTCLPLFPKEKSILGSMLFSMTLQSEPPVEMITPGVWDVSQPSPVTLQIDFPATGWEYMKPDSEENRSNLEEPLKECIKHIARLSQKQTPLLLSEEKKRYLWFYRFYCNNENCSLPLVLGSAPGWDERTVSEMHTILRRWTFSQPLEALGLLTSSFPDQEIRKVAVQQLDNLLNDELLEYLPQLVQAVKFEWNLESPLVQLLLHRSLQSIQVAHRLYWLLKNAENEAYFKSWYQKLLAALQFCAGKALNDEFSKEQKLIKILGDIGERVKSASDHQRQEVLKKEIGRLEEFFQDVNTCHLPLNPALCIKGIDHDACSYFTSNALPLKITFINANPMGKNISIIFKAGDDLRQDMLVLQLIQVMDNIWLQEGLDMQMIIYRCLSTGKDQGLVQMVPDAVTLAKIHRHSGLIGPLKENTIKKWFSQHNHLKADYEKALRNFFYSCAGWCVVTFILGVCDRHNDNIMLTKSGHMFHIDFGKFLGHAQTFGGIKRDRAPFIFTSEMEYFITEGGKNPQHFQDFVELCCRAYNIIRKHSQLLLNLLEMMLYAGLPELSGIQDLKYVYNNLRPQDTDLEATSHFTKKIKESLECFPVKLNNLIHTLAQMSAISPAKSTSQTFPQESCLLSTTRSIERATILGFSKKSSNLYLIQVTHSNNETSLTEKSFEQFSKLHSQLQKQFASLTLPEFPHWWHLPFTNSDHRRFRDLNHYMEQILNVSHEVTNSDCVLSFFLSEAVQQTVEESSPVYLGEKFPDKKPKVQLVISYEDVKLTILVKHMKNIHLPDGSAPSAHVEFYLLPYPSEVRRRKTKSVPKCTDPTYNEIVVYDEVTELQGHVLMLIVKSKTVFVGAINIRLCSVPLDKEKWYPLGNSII

[2] = target: T2, Dual specificity mitogen-activated protein kinase kinase 4 (Homo sapiens) (UniProt P45985); assay: Selectivity interaction (ActivX KiNativ screen (kinase selectivity in THP-1 cell lysates)) EUB0000639a MAP2K4; type: subcellular; conditions: lysate, at 5 µM
T2 sequence (whole entry): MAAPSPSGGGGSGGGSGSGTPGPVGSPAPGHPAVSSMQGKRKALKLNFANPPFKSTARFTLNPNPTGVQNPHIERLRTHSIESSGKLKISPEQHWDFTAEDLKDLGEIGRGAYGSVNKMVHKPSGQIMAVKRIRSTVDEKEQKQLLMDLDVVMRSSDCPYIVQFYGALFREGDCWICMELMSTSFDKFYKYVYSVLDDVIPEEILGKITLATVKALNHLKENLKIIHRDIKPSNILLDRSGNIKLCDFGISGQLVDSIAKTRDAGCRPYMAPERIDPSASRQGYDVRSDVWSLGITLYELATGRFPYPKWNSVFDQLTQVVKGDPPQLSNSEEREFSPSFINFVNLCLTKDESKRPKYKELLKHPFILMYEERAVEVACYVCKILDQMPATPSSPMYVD

[3] = target: Mitogen-activated protein kinase 7 (Homo sapiens) (UniProt Q13164); assay: Selectivity interaction (KinomeScan (DiscoverX)) EUB0000595a MAPK7; conditions: at 10 µM
Sequence of Mitogen-activated protein kinase 7 (Homo sapiens) (Q13164 2-816 limits assumed): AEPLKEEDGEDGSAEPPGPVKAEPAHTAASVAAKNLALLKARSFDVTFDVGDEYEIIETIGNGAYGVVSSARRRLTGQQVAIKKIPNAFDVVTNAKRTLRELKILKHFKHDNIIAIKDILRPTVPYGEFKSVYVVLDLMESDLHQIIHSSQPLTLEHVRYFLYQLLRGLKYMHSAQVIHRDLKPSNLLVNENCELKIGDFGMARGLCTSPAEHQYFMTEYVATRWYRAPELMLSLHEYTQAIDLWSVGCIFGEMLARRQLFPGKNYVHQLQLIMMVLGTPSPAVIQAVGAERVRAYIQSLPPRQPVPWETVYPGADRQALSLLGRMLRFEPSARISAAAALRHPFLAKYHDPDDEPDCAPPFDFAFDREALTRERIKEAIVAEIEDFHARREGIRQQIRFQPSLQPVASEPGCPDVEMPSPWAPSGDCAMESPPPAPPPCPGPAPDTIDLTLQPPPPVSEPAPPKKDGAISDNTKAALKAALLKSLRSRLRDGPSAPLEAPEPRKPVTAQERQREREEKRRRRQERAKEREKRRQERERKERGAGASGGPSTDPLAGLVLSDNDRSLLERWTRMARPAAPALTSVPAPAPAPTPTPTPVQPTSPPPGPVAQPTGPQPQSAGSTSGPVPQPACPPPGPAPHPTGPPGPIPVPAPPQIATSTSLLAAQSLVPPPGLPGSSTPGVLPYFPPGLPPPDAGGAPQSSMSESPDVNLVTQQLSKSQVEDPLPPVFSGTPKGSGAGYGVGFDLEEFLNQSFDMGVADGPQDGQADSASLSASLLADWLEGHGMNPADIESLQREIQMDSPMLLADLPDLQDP

[4] = target: Serine/threonine-protein kinase Nek7 (Homo sapiens) (UniProt Q8TDX7); assay: Selectivity interaction (Kinase panel (DSF assay)) EUB0001558a NEK7
Sequence of Serine/threonine-protein kinase Nek7 (Homo sapiens) (Q8TDX7 whole entry, looked up): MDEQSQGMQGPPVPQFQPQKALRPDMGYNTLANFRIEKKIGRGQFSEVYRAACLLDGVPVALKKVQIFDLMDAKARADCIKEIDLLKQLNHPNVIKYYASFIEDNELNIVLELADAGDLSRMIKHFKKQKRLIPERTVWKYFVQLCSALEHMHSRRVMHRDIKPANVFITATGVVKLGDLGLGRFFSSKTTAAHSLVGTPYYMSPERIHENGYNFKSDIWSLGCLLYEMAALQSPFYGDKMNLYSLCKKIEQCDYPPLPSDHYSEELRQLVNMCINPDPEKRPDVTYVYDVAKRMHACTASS

[5] = target: Cyclin-dependent kinase 7 (Homo sapiens, UniProt P50613); assay: Selectivity interaction (Kinase panel (KiNativ target engagement assay in Jurkat cells)) EUB0001635a CDK7; type: cell-based; conditions: Selectivity number of off-targets 0.0, Selectivity number of targets 233.0, Source Knowledge https://www.sciencedirect.com/science/article/pii/S2451945619300674?via%3Dihub, at 1 µM
Sequence of Cyclin-dependent kinase 7 (P50613 whole entry): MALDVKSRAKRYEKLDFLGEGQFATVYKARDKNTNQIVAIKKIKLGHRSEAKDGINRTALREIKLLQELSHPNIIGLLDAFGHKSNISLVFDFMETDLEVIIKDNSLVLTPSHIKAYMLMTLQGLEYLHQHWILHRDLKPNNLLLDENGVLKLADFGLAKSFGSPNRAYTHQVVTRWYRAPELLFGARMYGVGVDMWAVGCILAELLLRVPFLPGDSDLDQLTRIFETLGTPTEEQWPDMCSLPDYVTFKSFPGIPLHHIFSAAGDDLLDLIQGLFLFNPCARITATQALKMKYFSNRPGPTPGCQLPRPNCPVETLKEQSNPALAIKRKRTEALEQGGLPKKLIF

[6] = target: T3, Protein kinase C epsilon type (Homo sapiens) (UniProt Q02156); assay: Selectivity interaction (KinomeScan (DiscoverX)) EUB0000092b PRKCE; conditions: at 10 µM
T3 sequence (whole entry): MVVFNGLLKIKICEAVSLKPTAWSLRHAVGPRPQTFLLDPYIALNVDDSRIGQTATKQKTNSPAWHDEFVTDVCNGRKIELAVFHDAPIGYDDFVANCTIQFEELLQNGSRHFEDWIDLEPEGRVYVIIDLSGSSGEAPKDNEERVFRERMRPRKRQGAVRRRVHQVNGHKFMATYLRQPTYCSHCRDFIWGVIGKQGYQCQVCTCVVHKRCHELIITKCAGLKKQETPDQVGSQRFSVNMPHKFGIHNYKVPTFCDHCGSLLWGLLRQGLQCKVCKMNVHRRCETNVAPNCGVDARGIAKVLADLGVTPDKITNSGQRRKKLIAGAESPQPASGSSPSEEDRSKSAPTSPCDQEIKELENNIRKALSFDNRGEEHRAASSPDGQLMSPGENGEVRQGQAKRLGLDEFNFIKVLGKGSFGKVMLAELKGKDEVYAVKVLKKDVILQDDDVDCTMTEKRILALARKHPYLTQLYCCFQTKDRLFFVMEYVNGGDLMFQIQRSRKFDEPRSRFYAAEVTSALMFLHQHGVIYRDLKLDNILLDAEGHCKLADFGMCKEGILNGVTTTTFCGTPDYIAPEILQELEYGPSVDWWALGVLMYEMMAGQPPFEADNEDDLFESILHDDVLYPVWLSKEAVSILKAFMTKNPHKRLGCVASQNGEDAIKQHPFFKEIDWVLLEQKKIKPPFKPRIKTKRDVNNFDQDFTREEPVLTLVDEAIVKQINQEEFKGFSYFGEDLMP

[7] = target: Serine/threonine-protein kinase tousled-like 2 (Homo sapiens) (UniProt Q86UE8); conditions: at 10 µM
Sequence of Serine/threonine-protein kinase tousled-like 2 (Homo sapiens) (Q86UE8 whole entry, looked up): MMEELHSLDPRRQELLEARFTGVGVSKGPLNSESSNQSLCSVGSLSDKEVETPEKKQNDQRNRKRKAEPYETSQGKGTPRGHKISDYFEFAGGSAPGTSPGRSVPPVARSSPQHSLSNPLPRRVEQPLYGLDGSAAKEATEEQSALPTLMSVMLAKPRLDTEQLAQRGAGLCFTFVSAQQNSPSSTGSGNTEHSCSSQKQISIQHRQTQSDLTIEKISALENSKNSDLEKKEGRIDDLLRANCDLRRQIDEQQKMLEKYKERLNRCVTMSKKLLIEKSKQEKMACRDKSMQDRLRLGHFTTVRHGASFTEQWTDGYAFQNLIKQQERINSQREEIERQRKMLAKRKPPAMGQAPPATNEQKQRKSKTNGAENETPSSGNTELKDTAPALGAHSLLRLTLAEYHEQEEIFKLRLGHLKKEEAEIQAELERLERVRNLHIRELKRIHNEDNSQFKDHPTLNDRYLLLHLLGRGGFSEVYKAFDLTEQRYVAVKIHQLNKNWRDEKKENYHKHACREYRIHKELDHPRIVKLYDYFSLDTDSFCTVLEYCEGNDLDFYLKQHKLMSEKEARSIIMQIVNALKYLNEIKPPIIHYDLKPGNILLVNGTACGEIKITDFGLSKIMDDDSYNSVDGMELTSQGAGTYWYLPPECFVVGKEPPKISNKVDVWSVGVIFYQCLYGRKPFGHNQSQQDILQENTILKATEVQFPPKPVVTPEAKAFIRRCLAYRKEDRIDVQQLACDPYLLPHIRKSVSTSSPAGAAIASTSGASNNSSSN

% of inhibition [1]: 25.4%
Compound: CC[C@@H](Nc1c(C#N)c(-c2ccc(-c3cccc(C)c3F)cc2)nc2cnccc12)C(=O)O [BAY-091]

% of inhibition [2]: 29.6%
Compound: CC[C@@H]1[C@H](F)C(=O)N[C@@H]1COc1nccc2cc(C(N)=O)c(OC)cc12 [ZIMLOVISERTIB]

Compound: COCC(=O)NC/C=C/c1ccc2ncnc(Nc3ccc(Oc4ccc(C)nc4)c(C)c3)c2c1 [CP-724714]
% of control [3]: 100%

Compound: CC(C)(O)[C@H](F)CN1Cc2cc(NC(=O)c3cnn4cccnc34)c(N3CCOCC3)cc2C1=O
dTM [4]: -0.2 K

Compound: C=CC(=O)Nc1ccc(C(=O)Nc2[nH]nc3c2CN(C(=O)N[C@H](CN(C)C)c2ccccc2)C3(C)C)cc1
% of engagement [5]: 93.3%

Compound: CCC(=O)N1CCN(c2ccc(-n3c(=O)ccc4cnc5ccc(-c6cnc7ccccc7c6)cc5c43)cc2C(F)(F)F)CC1
% of control [6]: 86%

Compound: Cc1cc([C@@H](C)Nc2ccccc2C(=O)O)c2nc(N3CCOCC3)cc(=O)n2c1 [AZD-6482]
% of control [7]: 88%
